Results published in patent EP0412158A1, “ONCOSTATIC DRUG” (priority 1987, dated 1988).
“And” between values parts separate entries of the source, which are not always exact repeats. Equal entries are not always repeated. Where two headings read alike, the source gives them in different places.

What was measured:
human lung cancer (OAT) = type: in vivo, female ICR/cd-1 mice; conditions: Example 39: 100 mg/kg (so in the source), IP 1~6
[1] = test system: methyl cholanthrene A tumor; assay: Antineoplastic activity against transplanted methyl cholanthrene A tumor, evaluation by size of tumor (Examples 1 to 6); type: in vivo, female BALB/C mice; conditions: for Average weight of tumor / Number of tumorless mice /total number of mice / Change in body weight / T/control: ip×9; for Change in body weight: body weight 13 days after transplantation; for T/control: tumor weight
Description: By dissolving alkylammonium salt of polymolybdic acid [NH3C3H7(iso)]s [Mo7O24] • 3H2O (Compound A) and other compounds (Compounds B to D) severally in distilled water, aqueous solutions containing the compounds in a fixed concentration of 10 mg/ml were obtained. These aqueous solutions were administered to female BALB/C mice (five weeks old) to which methyl cholanthrene A tumor had been transplanted to test the compounds for antineoplastic activity. To be specific, methyl cholanthrene A was transplanted to the mice in a ratio of 1.0 x 10^5 cells per mouse and the aqueous solutions were continuously administered to the mice by intraperitoneal injection ([…]) for nine days. On elapse of 14 days following the start of the administration, the tumors in the mice were measured. For comparison, mice to which no antineoplastic .drug was administered and mice to which aminonitroso urea was administered were tested by following the procedure described above.

Test for acute toxicity = type: in vivo, BALB/C mice, nude mice; conditions: result in words

Nas [IMo6O24] • 34H2O [Compound M]
T/C (human lung cancer (OAT)): 60.0%
Tumorous activity T7/T0 (human lung cancer (OAT); group mean): 1.56±0.24
Tumorous activity T7/T0 (human lung cancer (OAT); individual mice, 100 mg/kg): 1.25 and 1.40 and 2.05
Tumorous activity T7 (human lung cancer (OAT); size of tumor on 7th day, individual mice, 100 mg/kg): 12.5 omu and 14.0 omu and 20.5 omu

[NH3C3H7(iso)]s (Mo7O24] • 3H2O [Compound A]
toxicity ([1]; 200 mg/kg.ip for nine days, judged by increase of body weight, result in words): very low toxicity
Average weight of tumor ([1]; No. 1, 100 mg/kg): 451.0 ± 84.7 mg
Number of tumorless mice /total number of mice ([1]; No. 1, 100 mg/kg): 1/8
Change in body weight ([1]; No. 1, 100 mg/kg): +2.50 (D1~D9) g
T/control ([1]; No. 1, 100 mg/kg): 0.169
Average weight of tumor ([1]; No. 2, 50 mg/kg): 1182.1±246.8(10) mg
Number of tumorless mice /total number of mice ([1]; No. 2, 50 mg/kg): 0/10
Change in body weight ([1]; No. 2, 50 mg/kg): +1.81 g
T/control ([1]; No. 2, 50 mg/kg): 0.414
Average weight of tumor ([1]; No. 2, 100 mg/kg): 563.9±99.1(9) mg
Number of tumorless mice /total number of mice ([1]; No. 2, 100 mg/kg): 0/10
Change in body weight ([1]; No. 2, 100 mg/kg): +1.97 g
T/control ([1]; No. 2, 100 mg/kg): 0.198
Average weight of tumor ([1]; No. 2, 200 mg/kg): 1211.8±227.6(8) mg
Number of tumorless mice /total number of mice ([1]; No. 2, 200 mg/kg): 0/8
Change in body weight ([1]; No. 2, 200 mg/kg): +1.81 g
T/control ([1]; No. 2, 200 mg/kg): 0.424
Average weight of tumor ([1]; No. 3, 50 mg/kg): 1606.0±163.5(8) mg
Number of tumorless mice /total number of mice ([1]; No. 3, 50 mg/kg): 0/8
Change in body weight ([1]; No. 3, 50 mg/kg): +1.68 g
T/control ([1]; No. 3, 50 mg/kg): 0.624
acute toxicity (Test for acute toxicity; BALB/C mice, dose of 3,600 mg/kg): no toxicity
acute toxicity (Test for acute toxicity; nude mice, dose of 2,000 mg/kg ip): no toxicity
